Experimental findings from a melting point compilation (Tetko et al.; mined from patent text by program, amines drawn as free bases though some values may be those of a salt) are described below.

For the compound `C[N+](C)([O-])S(=O)(=O)c1ccc2c(c1)N(C1CN3CCC1CC3)c1ccccc1S2=O` (stereo not drawn), the melting point was determined as 130 °C.
`CC(C)=C1C(=O)N(c2ccc(O)cc2)C(=O)/C1=C(\C)c1cc(C)oc1C` showed a melting point of 206 to 208 °C.
For the compound `CCOc1ccc2[nH]c3c([N+](=O)[O-])ccc(Cl)c3c(=O)c2c1`, the melting point lay within 244 to 246 °C.
Then `CNC(=O)c1cccc(C(O)c2ccc(F)cc2)c1` (stereo not drawn), with 138 to 139 °C.
For `CCN1C(=O)C(C(=O)Nc2ccc(F)cc2F)c2cc(C3(C)OCCO3)ccc21` (stereo not drawn), the melting point is 166 to 170 °C.
The value for `CNC(=O)c1ccc(C=CC(=O)NCC(=O)N(C)c2ccc(C)c(CO)c2C)cc1` was 261 to 263 °C; that for `COc1ccccc1-n1c(=O)[nH]c2c(C(N)=O)nc(-c3ccccc3C(F)(F)F)nc21` was 237 to 240 °C; that for `Cc1ccc(C(=O)c2ccc([N+](=O)[O-])cc2)cc1` was 122 to 123 °C.
The compound `COC(=O)c1cnc(CO)n1C` showed a melting point of 145 to 147 °C.
Turning to `CCCCCc1ccc(-c2ccc(CCc3ccc(OCC)cc3)cc2)cc1`, the melting point was determined as 81 °C.
With `N#CCn1nnc(NC(=O)C2c3ccccc3Oc3ccccc32)n1`, the melting point lay within 204 to 205 °C.
Then `CC(O)CCCCCc1ccc(-c2ccccc2)cc1` (stereo not drawn), with 47 to 48 °C; and `O=c1cc(OCc2cccc(Cl)c2)ccn1Cc1ccccc1`, with 95.5 to 95.7 °C; and `Nc1nc2ccccc2c2c1nc(CO)n2CC1CCOCC1`, with 239 to 241 °C.
Turning to `CCOc1ccc2c(c1)C(c1ccccc1Cl)(N(C)C)C(=O)N2S(=O)(=O)c1ccc(NC(=O)N(CC)CC)cc1OC` (stereo not drawn), the melting point is 212 to 214 °C.
Consider `O=C(Nc1cccc(F)c1)NC1CCN(S(=O)(=O)c2ccccc2)CC1`, for which the melting point lay in the range of 186 to 188 °C.
The value for `Cc1cc(O)c(C=O)c(C)c1Cl` was 90 to 92 °C; that for `CCCCN(CCCC)C(=O)c1cc2ccccc2c(-c2ccccc2)n1` was 62 °C; that for `CC(=O)NCc1ccc(CN2CCN(c3cccc(C)c3)CC2)cc1` was 80 to 81 °C.
As to `Cc1nc(C=Cc2nc3ccc(F)cc3c(=O)n2-c2ccccc2Br)cs1`, the melting point lay within 233 to 234 °C.
The value for `CN(C)C(=O)c1ccc(C=CC(=O)c2cccc(OCc3ccc4ccc(Cl)cc4n3)c2)o1` was 141 to 142 °C; that for `O=C(O)c1nn(-c2ccc(Cl)cc2Cl)c2c1SCc1cc(Cl)ccc1-2` was 262 °C.
Compound `CC(C)[C@@H]1C[C@@H]([C@H](Br)CC2CCCCC2)OC1=O` had a melting point of 95 to 95.5 °C.
Turning to `CN(c1cc2c3c(c1)CCCC3CCC2)c1ncc(C(=O)O)cn1`, the melting point is 255 to 256 °C.
`NC(=O)N1C(=O)C(C(=O)c2cccs2)c2nc(Cl)ccc21` (stereo not drawn): the melting point lay in the range of 222 to 224 °C.
Then `CCOC(=O)c1cc(OCc2ccccc2)c2ccc(C#N)cc2c1`, with 125 °C; and `CS(=O)(=O)NCCn1nccc1-c1ccc(Oc2ccc(F)cc2)cc1`, with 96 to 98 °C.
`CCOC(=O)C1=C(C)Nc2ccnc(OC(C)C)c2C1c1cccs1` (stereo not drawn): the melting point lay within 110 to 111 °C.
In turn, `CCOC(=O)c1cn2cccc(C(=O)OCC)c2n1` returned a melting point of 97 °C.
For `OCc1cccc2cc(Br)ccc12`, the melting point was 72 to 75 °C.
The value for `COC(=O)[C@@H](Cc1ccccc1)NC(=O)OCc1cc2cc(-c3ccccc3)ccc2[nH]1` was 142 to 143 °C; that for `O=c1[nH]c(=O)n(CCCCN2CCC(OC(c3ccccc3)c3ccccc3)CC2)c2cc(Cl)ccc12` was 169 to 171 °C.
Compound `O=CC1(c2ccc(Br)cc2)CC=CO1` (stereo not drawn) came in with a melting point of 154 °C.
The compound `CC(C)N1CC2(COc3ccc([N+](=O)[O-])cc3OC2)OC1c1ccccc1` (stereo not drawn) had a melting point of 151 to 152 °C.
Consider `CC(C)(CNS(=O)(=O)C(F)(F)F)Cn1c(=O)c2cccc3ncc(c1=O)n32`, for which the melting point lay in the range of 196 to 198 °C.
For the compound `Cc1ccc(S(=O)(=O)NC(=O)CC2(c3ccc(OCc4ccc5ccccc5n4)cc3)CCCC2)cc1`, the melting point is 80 °C.
Take `Cc1nc(-c2cc(C(C)(C)C)c(O)c(C(C)(C)C)c2)no1`: the melting point fell in the range of 126 to 127 °C.
Compound `CC[C@@H](C)[C@@H]1NC(=O)OC1(c1ccccc1)c1ccccc1` yielded a melting point of 221 to 223 °C.
With `CCOC(=O)N(c1ccccc1[N+](=O)[O-])c1cccc(C)c1C`, the melting point was in the range of 71 to 73 °C.
`CN1C2CCC1CC(O)(c1ccc(Cl)cc1)C2` (stereo not drawn) showed a melting point of 186 to 187 °C.
As for `Cc1cc(S(=O)(=O)c2cc(C)c(O)c(C3CCCCC3)c2)cc(C2CCCCC2)c1O`, the melting point fell in the range of 264 to 265 °C.
As to `CCCc1nc2c(N)nc3ccccc3c2n1CC1(O)CCOC1` (stereo not drawn), the melting point is 201 to 203 °C.
`CCCc1c(OCc2ccc(CSc3nnn[nH]3)cc2)ccc(C(C)=O)c1O` yielded a melting point of 160 to 161 °C.
`COc1ccc(C(C)C)cc1-c1cc(-c2nnnn2C2CCNC2)c(OCc2ccccc2)cc1OCc1ccccc1` (stereo not drawn) came in with a melting point of 85 to 87 °C.
The value for `CCOC1=CC2=CC[C@@H]3[C@H](CC[C@]4(CC)C(=O)C=C[C@@H]34)[C@H]2CC1` was 137 °C; that for `COc1ccc(NN=C(Sc2ccc(C#N)cc2)C(C)=O)cc1` was 182 to 184 °C; that for `COc1ccc2sc(C(N)=O)c(SC(C)C)c2c1` was 143 to 144 °C.
For `OCc1c(CO)c2sc3ccccc3n2c1-c1ccc(F)cc1`, the melting point fell in the range of 155 to 156 °C.
For `Cn1nc(-c2ccncc2)c(-c2ccc(Cl)cc2)c1N`, the melting point is 257 to 258 °C.
`CC(=O)C1CCC2C3=C(C(=O)CC12C)C1(C)CCC(O)CC1CC3` (stereo not drawn) came in with a melting point of 170 to 172 °C.
With `CCOC(=O)c1nc(-c2ccc(Cl)c(OC)c2F)cc(N)c1SC`, the melting point was in the range of 93 to 94 °C.
In turn, `CC(C)OCC1(C(F)(F)F)c2cc(C#N)ccc2Nc2ncc(Br)cc21` (stereo not drawn) returned a melting point of 76 to 77 °C.
`O=C1C=c2c(c3c(c4[nH]c5ccccc5c24)Cc2ccccc2-3)=N1` gave a melting point of 275 to 280 °C.
`COc1ccc(C(=O)N(c2ccccc2)c2ccc(OCCCN(C)C)cc2)cc1` came in with a melting point of 111 to 115 °C.
Then `CC(C)OCc1nc(C(C)(C)O)c(C(=O)O)n1Cc1ccc(-c2ccccc2-c2nnn[nH]2)cc1`, with 153 to 161 °C; and `CC(=O)Nc1ccc(O)c(C(=O)CCC(=O)O)c1`, with 205 to 206 °C; and `Cc1cc2[nH]c(C)nc(NCCN3CCOCC3)c-2n1`, with 237 to 238 °C.
Compound `CC[C@H](CC(=O)NC(=O)OCc1ccccc1)Nc1ccc(C(F)(F)F)cc1` gave a melting point of 101 °C.
Then `COc1ccc(C2(C)Cc3cc(OCC(=O)O)c(Cl)c(Cl)c3C2=O)cc1` (stereo not drawn), with 173 to 175 °C; and `COC(=O)Oc1cc2c(c(O)c1C)C(=O)c1c(OC)c3c(c(O)c1C2=O)-c1c(cc2cnn(-c4ccccc4)c(=O)c2c1O)CC3`, with greater than 350 °C.
In turn, `CCCCCCCCCCCCCCCCCCOC(=O)P(=O)(O)O` registered a melting point of 81 to 82 °C.
The value for `Cc1nc2c(N)nc3cccnc3c2n1CC1(O)CCN(S(C)(=O)=O)CC1` was greater than 255 °C; that for `COc1ccc(OC)c2c1C(=O)C=C(SCCC(=O)O)C2=O` was 208 to 209 °C; that for `CSc1cc(S(F)(F)(F)(F)F)ccc1C#N` was 101 to 102 °C.
Then `CNC(=O)COC(=O)N1CCN(CCc2ccc3ccccc3c2)CC1`, with 133 to 135 °C.
The value for `CCOC(=O)CNC(=O)C(=O)NCC(OC)OC` was 63 to 65 °C.
As to `Oc1ccc2c(c1)CCCC(c1ccccc1)=C2c1ccc(OCCCCCCCl)cc1`, the melting point was found to be 193 °C.
`COc1cc2c(cc1OC)C(=O)CC(C)(C)O2` showed a melting point of 105 to 106 °C.
The value for `COc1ccc(CCNc2nc(O)c(NC(=O)c3ccco3)c(O)n2)cc1` was greater than 250 °C; that for `O=Cc1c(Cl)cc(CO)cc1Cl` was 109 to 110 °C.
`CCCCC(C(=O)O)C1=C(c2ccccc2)c2ccccc2OC1` (stereo not drawn) displayed a melting point of 117 to 119 °C.
In the case of `O=C(NCc1ccccn1)Nc1nc(C(=O)O)cs1`, the melting point turned out to be 220 °C.
The value for `COCCNC(N)=Nc1ccccc1N1CCOCC1` was 125 to 128 °C; that for `O=C(Nc1noc2ccccc12)N1CCN(c2nc(-c3ccccn3)ns2)CC1` was 222 to 223 °C; that for `CCn1nc2c(N)nc3ccccc3c2c1CC1(F)CCN(S(C)(=O)=O)CC1` was 269 to 271 °C.
The value for `O=C(Cc1ccc(Oc2ccc(F)cc2)cc1)NC1(C(=O)O)Cc2ccc(-c3ccc(Cl)cc3)cc2C1` (stereo not drawn) was 232 to 234 °C; that for `CCOC(=O)C1=C(C(F)(F)F)Nc2n[nH]cc2C1c1ccc(Cl)cc1` (stereo not drawn) was 176 to 178 °C; that for `Cc1nc(CNC=O)ccc1OCc1ccccc1` was 67 to 68 °C.
The compound `NCC1Cc2cccc(-c3ccsc3)c2O1` (stereo not drawn) displayed a melting point greater than 200 °C.
As to `COc1c(Cl)cc(NC(C)=O)c(OC)c1N`, the melting point came to 113 °C.
For `COc1ccc2c(c1)c1c(n2C)CC(C(N)=O)C1` (stereo not drawn), the melting point lay within 178 to 180 °C.
Compound `Cc1ccc(C(OS(C)(=O)=O)(C(F)(F)F)C(F)(F)F)cc1C(OS(C)(=O)=O)(C(F)(F)F)C(F)(F)F` registered a melting point of 107 °C.
Then `CC1CC(=O)N(CCCCN2CCN(c3ncccn3)CC2)S(=O)(=O)N1` (stereo not drawn), with 115 to 117 °C.
Regarding `O=C1c2cc(F)ccc2-n2c1nc1cccc(F)c1c2=O`, the melting point lay within 323 to 325 °C.
On to `Nc1ccc(S(=O)(=O)c2cnc(N)s2)cc1`, for which the melting point fell in the range of 218 to 219 °C.
The compound `CC(C)C[C@H](NC(=O)c1cc2ccccc2o1)C(=O)N[C@H]1CC[C@@H](C)N(S(=O)(=O)c2ccccn2)CC1=O` had a melting point of 151 to 153 °C.
For the compound `CC(C)(C)OC(=O)NCc1ccc(C(=O)Nc2ccc(Nc3cc(-c4cccc5c4oc4ccccc45)ncn3)cc2)c(F)c1`, the melting point came out at 255 °C.
For the compound `CC(C)(O)C#Cc1ccc(Br)cc1`, the melting point amounted to 62 °C.

As a reminder, the melting point is the temperature, or range, at which the solid turns liquid.
